These are literature values, as cited in US8293290B2, “Annatto extract compositions, including geranyl geraniols and methods of use” (American River Nutrition, Inc., priority 2003, dated 2012).

Series [1] relates to untransformed cells or normal cells.
Another series has as its target T1, PPARα (Homo sapiens, UniProt Q07869).
T1 construct: host or cells: HepG2 hepatocytes (from the cited title only)
T1 sequence (Q07869 1-468): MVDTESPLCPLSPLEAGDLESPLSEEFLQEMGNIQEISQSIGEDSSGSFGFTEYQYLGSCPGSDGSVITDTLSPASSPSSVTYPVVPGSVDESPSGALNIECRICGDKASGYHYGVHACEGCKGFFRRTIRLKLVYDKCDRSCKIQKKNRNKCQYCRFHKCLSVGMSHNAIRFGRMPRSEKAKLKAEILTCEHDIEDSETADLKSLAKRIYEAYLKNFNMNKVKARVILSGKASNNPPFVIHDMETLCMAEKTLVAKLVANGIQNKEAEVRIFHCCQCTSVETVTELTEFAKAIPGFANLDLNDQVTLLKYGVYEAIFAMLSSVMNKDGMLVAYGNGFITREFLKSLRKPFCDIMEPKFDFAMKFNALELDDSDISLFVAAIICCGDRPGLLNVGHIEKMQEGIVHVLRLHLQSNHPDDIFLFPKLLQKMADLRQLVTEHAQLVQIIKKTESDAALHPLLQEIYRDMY
As to conditions: at the hepatocytes.

In the next series the target is T2, PPARγ (Mus musculus, UniProt P37238).
T2 construct: host or cells: 3T3-L1 adipocytes (from the cited title only)
T2 sequence (P37238 1-505): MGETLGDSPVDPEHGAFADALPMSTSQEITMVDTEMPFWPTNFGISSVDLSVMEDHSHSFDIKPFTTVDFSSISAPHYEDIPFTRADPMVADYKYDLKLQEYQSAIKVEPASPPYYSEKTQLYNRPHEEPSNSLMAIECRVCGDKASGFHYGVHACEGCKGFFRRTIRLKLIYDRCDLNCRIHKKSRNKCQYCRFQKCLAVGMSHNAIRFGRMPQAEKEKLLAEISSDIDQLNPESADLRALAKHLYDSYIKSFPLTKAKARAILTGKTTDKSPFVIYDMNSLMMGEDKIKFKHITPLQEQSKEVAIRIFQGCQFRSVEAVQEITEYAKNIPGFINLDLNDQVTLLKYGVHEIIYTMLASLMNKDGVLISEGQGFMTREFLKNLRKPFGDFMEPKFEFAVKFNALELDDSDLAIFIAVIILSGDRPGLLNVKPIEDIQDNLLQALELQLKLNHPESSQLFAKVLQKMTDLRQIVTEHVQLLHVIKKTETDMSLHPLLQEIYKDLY
Particulars: at the adipocytes.

Another series relates to prostate cancer patients. Particulars: after one year of CoQ10 supplementation.
For series [2] the following is noted: exogenous oral supplementation.

In the case of `CC(C)=CCC/C(C)=C/CC/C(C)=C/CC/C(C)=C/CO` [GG, Geranyl geraniol], in series [1], the “cytotoxicity (cell rounding, indicator of myotoxicity)” value is given as “not cytotoxic” and the “toxicity to untransformed cells or normal cells” value is “not toxic”. Also, the PPARα activation entry at PPARα was “activates”. The PPARγ activation result at PPARγ is listed as “activates”. Besides, the “inhibition of cytochrome P450 enzymes (incl. CYP3A4)” value in the series on cytochrome P450 enzymes is “does not inhibit”.
For the molecule `COC1=C(OC)C(=O)C(C/C=C(\C)CC/C=C(\C)CC/C=C(\C)CC/C=C(\C)CC/C=C(\C)CC/C=C(\C)CC/C=C(\C)CC/C=C(\C)CC/C=C(\C)CCC=C(C)C)=C(C)C1=O` [CoQ10, coenzyme Q10], in the series on prostate cancer patients, the “decrease of prostate mass” value is 47% and the “decrease of prostate specific antigen (PSA)” value is given as 71%. Further, in series [2], the “fraction of supplemental CoQ10 absorbed” value is “less than 5%”.
